How the values were obtained:
HMG-CoA reductase = target: T1, HMG-CoA reductase (Rattus norvegicus, UniProt P51639); test: Test A. In Vitro Microsomal Assay of HMG-CoA Reductase Inhibition; type: biochemical, rat (male Sprague-Dawley); conditions: rat liver microsomes; [14C]HMG-CoA substrate; test substance 0.0001-2,000 μmolar; read-out: IC50 (concentration producing a 50% inhibition of HMG-CoA reductase activity)
T1 sequence (P51639 1-887): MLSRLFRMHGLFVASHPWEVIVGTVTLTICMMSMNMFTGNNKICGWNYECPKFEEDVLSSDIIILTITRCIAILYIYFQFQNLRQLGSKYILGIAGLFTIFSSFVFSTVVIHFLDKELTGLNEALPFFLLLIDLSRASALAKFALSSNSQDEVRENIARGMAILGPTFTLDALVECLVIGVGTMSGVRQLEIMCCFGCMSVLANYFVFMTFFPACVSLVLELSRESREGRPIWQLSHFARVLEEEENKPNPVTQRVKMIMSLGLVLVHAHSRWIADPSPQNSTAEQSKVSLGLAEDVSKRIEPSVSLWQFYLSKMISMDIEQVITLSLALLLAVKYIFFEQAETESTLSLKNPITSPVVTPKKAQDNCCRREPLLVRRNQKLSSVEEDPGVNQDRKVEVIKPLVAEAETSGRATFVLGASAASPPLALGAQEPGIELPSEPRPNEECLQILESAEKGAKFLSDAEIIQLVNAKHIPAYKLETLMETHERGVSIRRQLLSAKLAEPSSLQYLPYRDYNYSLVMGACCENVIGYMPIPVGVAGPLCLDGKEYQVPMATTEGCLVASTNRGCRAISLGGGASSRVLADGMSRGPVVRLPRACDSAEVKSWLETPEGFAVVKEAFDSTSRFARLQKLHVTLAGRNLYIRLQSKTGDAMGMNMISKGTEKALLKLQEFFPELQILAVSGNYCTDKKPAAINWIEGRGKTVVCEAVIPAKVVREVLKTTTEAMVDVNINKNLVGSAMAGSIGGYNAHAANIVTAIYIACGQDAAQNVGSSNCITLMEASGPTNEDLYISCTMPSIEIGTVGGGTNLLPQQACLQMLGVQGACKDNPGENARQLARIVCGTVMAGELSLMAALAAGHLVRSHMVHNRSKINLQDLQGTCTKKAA
Procedure: Test A. In Vitro Microsomal Assay of HMG-CoA Reductase Inhibition:
200 μl. aliquots (1.08-1.50 mg./ml.) of rat liver microsomal suspensions, freshly prepared from male Sprague-Dawley rats (150-225 g. body weight), in Buffer A with 10 mmol. dithiothreitol are incubated with 10 μl. of a solution of the test substance in dimethylacetamide and assayed for HMG-CoA reductase activity as described in Ackerman et al., J. Lipid Res. 18, 408-413 (1977), the concentration of the test substance in the assay system being 0.0001-2,000 μmolar. In the assay the microsomes are the source of the HMG-CoA reductase enzyme which catalyzes the reduction of HMG-CoA to mevalonate. The assay employs a chloroform extraction to separate the product, [^14 C]mevalonolactone, formed by the HMG-CoA reductase reduction of the substrate, [^14 C]HMG-CoA. [^3 H]mevalonolactone is added as an internal reference. Inhibition of HMG-CoA reductase is calculated from the decrease in specific activity ([^14 C/^3 H]mevalonate) of test groups compared to controls.
IC50 is the concentration of the test substance in the assay system calculated or observed to produce a 50% inhibition of HMG-CoA reductase activity.

[1] = tested on: 3β-hydroxysterol synthesis; test: Test B. In Vivo Cholesterol Biosynthesis Inhibition Test; parameters: species or system rat (male Wistar Royal Hart); conditions: Rattus norvegicus; rats, oral, 0.5% carboxymethylcellulose; i.p. sodium [1-14C]acetate one hour later; serum two hours after mid-dark; read-out: ED50 (dose producing a 50% inhibition of 3β-hydroxysterol synthesis)
Procedure: Test B. In Vivo Cholesterol Biosynthesis Inhibition Test:
In vivo studies utilize male Wistar Royal Hart rats weighing 150±20 g. which have been kept for 7-10 days on an
altered light cycle (6:30 A.M.-6:30 P.M. dark) housed two per cage and fed powdered Purina Rat Chow and water ad libitum. Three hours before the diurnal maximum of cholesterol synthesis at mid-dark, the rats are orally administered the test substance (e.g., 0.01-200 mg./kg. body weight) dissolved or as a suspension in 0.5% carboxymethylcellulose in a volume of 1 ml./100 g. body weight. Controls receive vehicle alone. One hour after receiving the test substance (or the vehicle alone), the rats are injected intraperitoneally with about 25 μCi/100 g. body weight of sodium [1-^14 C]acetate 1-3 mCi/mmol. Two hours after mid-dark, blood samples are obtained under sodium hexobarbitol anesthesia, and the serum is separated by centrifugation.
The [^14 C]digitonides are then counted by liquid scintillation spectrometry. After correcting for efficiencies, the results are calculated in nCi (nanocuries) of 3β-hydroxysterol formed per 100 ml. of serum. Inhibition of 3β-hydroxysterol synthesis is calculated from the reduction in the nCi of 3β-hydroxysterols formed from test qroups compared to controls.
ED50 is the dose of the test substance calculated or observed to produce a 50% inhibition of 3β-hydroxysterol synthesis.

IC50 (HMG-CoA reductase) [nM] | SMILES | ED50 [1] [mg/kg]
150 | Cc1cc(C)cc(C2=C(/C=C/[C@H]3C[C@@H](O)CC(=O)O3)C3(CCCC3)c3ccccc32)c1 (relative stereo) [Example 7] | –
4700 | CCC1(CC)C(/C=C/C(O)CC(O)CC(=O)O)=C(c2ccc(F)cc2)c2ccccc21 (centres unmarked) [Example 17] | –
– | CC[C@H](C)C(=O)O[C@H]1CCC=C2C=C[C@H](C)[C@H](CC[C@@H]3C[C@@H](O)CC(=O)O3)[C@H]21 [Compactin, reference compound] | 3.5
5 | O=C(O)C[C@H](O)C[C@H](O)/C=C/C1=C(c2ccc(F)cc2)c2ccccc2C12CCCC2 (relative stereo) [Example 2, Sodium erythro-(E)-3,5-dihydroxy-7-[3'-(4"-fluorophenyl)spiro[cyclopentane-1,1'(1H)-inden]-2'-yl]hept-6-enoate] | 0.07
19 | CCOC(=O)CC(O)CC(O)/C=C/C1=C(c2ccc(F)cc2)c2ccccc2C12CC2 (centres unmarked) [Example 24] | 0.71
7 | Cc1cc(C)cc(C2=C(/C=C/[C@@H](O)C[C@@H](O)CC(=O)O)C3(CCCC3)c3ccccc32)c1 (relative stereo) [Example 8, Sodium erythro-(E)-3,5-dihydroxy-7-[3'-(3",5"-dimethylphenyl)spiro[cyclopentane-1,1'(1H)-inden]-2'-yl]hept-6-enoate] | 0.31
530 | CC(C)C1C(/C=C/[C@@H]2C[C@@H](O)CC(=O)O2)=C(c2ccc(F)cc2)c2ccccc21 (some centres unmarked) [Example 20] | –
3 | O=C(O)C[C@H](O)C[C@H](O)/C=C/C1=C(c2ccc(F)cc2)c2ccccc2C12CCCC2 | –

Reference: US5001255A, “Idene analogs of mevalonolactone and derivatives thereof” (Sandoz Pharm. Corp., priority 1988, dated 1991)
